Results on seven compounds are retold here after patent US20030196279A1, “Single-bath biopreparation and dyeing of textiles” (Novozymes North America, Inc., priority 1999, published 2003).

The nature of test [1]: Wetting test, water drop test, AATCC Test Method 79-1992. To be noted: Example 10; added to pectinase biopreparation and dyeing solution. As for the experimental part:
The wetting test was performed using water according to AATCC Test Method 79-1992. Five measurements were taken from each of three areas along the fabric in this water drop test. Color measurements were made using reflectance Macbeth Color Eye System with Optiview 1.7 software, using 10° standard observer and illuminant D65, which represents average daylight over range of 380-830 nm. Ten measurements at different positions of fabric tube were carried out.

Another test deals with pectate lyase. The test is described as follows: Compatibility of pectate lyase with dyes, vibration viscometry assay on polygalacturonic acid. It is filed as biochemical. The settings on record: 0.5 ml of 10 g/l dye solution added; pH 8.5, 40° C., 20 minutes; relative to none-dye control. As for the experimental part:
An analytical assay is used in compatibility tests. Prior to this assay, 5 mM phosphate buffer pH 8.5 is made up using KH2PO4 and NaOH (both from Fisher). The other solutions are constituted as follows:
i) The substrate is polygalacturonic acid in sodium salt form (from SIGMA). The substrate solution is made up to 11.436 g/l by dissolving polygalacturonic acid sodium salt in the phosphate buffer.
ii) Dye solutions are made up to 10 g/l by dissolving a commercial dye in the phosphate buffer.
iii) An internal standard pectate lyase (2600 APSU/g) is used. The enzyme solution is made up to 500 APSU/ml by dissolving the pectate lyase in the phosphate buffer.
During the assay, 3.5 ml substrate solution was pipetted into each tube. 0.5 ml of a dye solution or buffer was added and mixed well. The tube was then preheated in 40° C. water bath for 5 minutes. A total of 0.5 ml solution, including enzyme, and buffer was added using Hamilton Micro Lab 900. In dye compatibility, the 0.5 ml solution was made up with 40 μl enzyme solution and 460 μl buffer. For standard curve, 0-90 μl enzyme solution was used. Once enzyme was added, the solution was mixed immediately and the tube incubated at 40° C. for 20 minutes. The viscosity was then measured after putting the tube on a vibration viscometer (Sofraser Viscometer-mivi 3000, from France) for 10 seconds. At all conditions, experiments were performed in duplicate.
A standard linear curve was obtained within 0-5 APSU/ml pectate lyase concentration range (0-45 μl enzyme solution added). The correlation is given in the equation below: […]
Since the Y was obtained from experimental measurements, X was then calculated using the above equation. The enzyme activity with the addition of dye was compared to the activity of none-dye control. The relative activity is illustrated in Table 13. […] Since the chromophore structure of reactive dye shares similar chemical structure of direct dye and other dye classes, similar compatibility results may be expected for other dye classes. […] Since commercial dyes are not pure and often contains salt, the positive impact may be due to the salt in dye formula.

Test [2] has as its system pectate lyase activity on woven cotton fabric. The settings on record: Example 5; 2000 APSU/kg pectate lyase, pH 9.2, 60° C., 30 minutes, woven fabric 480U.
Protocol: A buffer containing 2 mM borate at pH 9.2 and 1 g/l nonionic surfactant Tergitol 15-S-12 was prepared. The solution was transferred to Labomat beakers (Werner-Mathis USA, Inc., NC). […] Swatches of a woven fabric (type 480U from Testfabrics, Inc., PA) were then added to the beakers so that the liquor-to-fabric ratio was 10 ml/g. After the temperature was raised to 60° C., 2000 APSU/kg fiber of pectate lyase were added and the fabric was incubated at 60° C. for 30 minutes. The swatches were then removed and rinsed twice in hot and cold water.
The amount of residual pectic substances remaining on the fabric was determined by measuring the color strength of the fabric dyed with Ruthenium red, a dye with an affinity for pectic substances. For the Ruthenium red assay, a fresh solution was prepared containing 0.2 g/l Ruthenium red, 1.0 g/l ammonium chloride, 2.5 ml/l 28% ammonium hydroxide solution, 1.0 g/l Silwet L-77 (Wetter, Polyalkyleneoxide modified heptamethyltrisiloxane), and 1.1 g/l Tergitol 15-S-12. The solution was used at a ratio of 100 ml solution/gram of fabric. Fabric swatches were dyed at room temperature in Labomat beakers for 15 minutes and then rinsed with cold water. After drying, the color of swatches was assessed by measuring the reflectance of the Ruthenium red-dyed fabric on Macbeth color eye at 540 nm, and the dye on the fabric was calculated as K/S value.

In the case of `O=P(O)(O)OP(=O)(O)OP(=O)(O)O` [sodium tripoly phosphate (STPP), sodium tripoly phosphate], the “wettability (wetting time in the drop test, FIG. 2)” value in test [1] is “better wettability”.

On to `Nc1c(S(=O)(=O)[O-])cc(Nc2cccc(S(=O)(=O)CCOS(=O)(=O)[O-])c2)c2c1C(=O)c1ccccc1C2=O.[Na+].[Na+]` [Remazol Br. Blue R Spec.], for which the “% Activity (relative pectate lyase activity)” value with pectate lyase amounted to 200.9%.

cellulase: the “wettability (wetting time in the drop test, FIG. 2)” value in test [1] is recorded as “better wettability”.

For the compound `C=C(Br)C(=O)Nc1ccc(N=Nc2c(NC)ccc3cc(S(=O)(=O)[O-])cc(O)c23)c(S(=O)(=O)[O-])c1.[Na+].[Na+]` [Lanasol Red 5B], in the test on pectate lyase, the “% Activity (relative pectate lyase activity)” value was 117.6%.

Take `O=S(=O)([O-])[O-].[Na+].[Na+]` [sodium sulfate]: in test [2], the “sodium sulfate concentration at which a minimum amount of pectic residue was left on the fabric” value is on record as “about 20 g/l”.

`Nc1c(N=Nc2ccc(S(=O)(=O)CCOS(=O)(=O)[O-])cc2)c(S(=O)(=O)[O-])cc2cc(S(=O)(=O)[O-])c(N=Nc3ccc(S(=O)(=O)CCOS(=O)(=O)[O-])cc3)c(O)c12.[Na+].[Na+].[Na+].[Na+]` [Remazol Black B]: in the test with pectate lyase, the “% Activity (relative pectate lyase activity)” value stood at 114.8%.

Consider `CC(=O)Nc1ccc2cc(S(=O)(=O)O)c(N=Nc3ccc(S(=O)(=O)CCOS(=O)(=O)O)cc3)c(O)c2c1.[Na]` [Remazol Br. Orange 3R], for which the “% Activity (relative pectate lyase activity)” value in the test with pectate lyase was 110.1%.
